How the values were obtained:
[1] = tested on: P2Y receptors; test: Ca2+ signals; assay type: cell-based, rat; conditions: for Δ[Ca2+]i Peak: peak increase in [Ca2+]i, populations of cultured ASMC; for pEC50 Peak (with Ca2+): peak response in HBS; for pEC50 Ca2+ entry: sustained Ca2+ entry signal; for Δ[Ca2+]i Sustained: sustained increase measured between 250 and 300 s, cultured ASMC; for pEC50 Peak (Ca2+-free): peak response in Ca2+-free HBS
[2] = tested on: Gi/o; assay type: cell-based, rat
[3] = ref Abbracchio et al., 2006; cited from earlier work
[4] = tested on: phospholipase C; assay type: cell-based, rat
[5] = tested on: P2X1 and P2X3 receptors; conditions: not shown
[6] = target: T1, P2Y14 receptors (Rattus norvegicus, UniProt O35881); assay type: cell-based; conditions: agonist 10 µM; not shown
T1 sequence (O35881 1-305): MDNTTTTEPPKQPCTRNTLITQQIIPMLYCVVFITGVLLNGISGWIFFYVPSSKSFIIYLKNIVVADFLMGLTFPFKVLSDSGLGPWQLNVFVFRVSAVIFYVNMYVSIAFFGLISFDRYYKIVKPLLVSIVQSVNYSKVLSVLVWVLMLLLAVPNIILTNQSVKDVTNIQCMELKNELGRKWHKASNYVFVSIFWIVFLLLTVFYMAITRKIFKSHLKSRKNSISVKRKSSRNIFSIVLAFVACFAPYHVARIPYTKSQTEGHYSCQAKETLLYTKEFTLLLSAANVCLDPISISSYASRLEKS

| Molecule | Δ[Ca2+]i Peak [1] [nM] | pEC50 Peak (with Ca2+) [1] | pEC50 Ca2+ entry [1] | Δ[Ca2+]i Sustained [1] [nM] | also measured |
| --- | --- | --- | --- | --- | --- |
| CSc1nc(N)c2ncn([C@@H]3O[C@H](COP(=O)(O)OP(=O)(O)O)[C@@H](O)[C@H]3O)c2n1 [2-MeSADP, 2-methylthio-adenosine-5′-diphosphate] | 122 ± 30 | 7.23 ± 0.53 | 5.58 ± 0.16 | 18 ± 4 | – |
| O=c1ccn([C@@H]2O[C@H](COP(=O)(O)OP(=O)(O)OP(=O)(O)O)[C@@H](O)[C@H]2O)c(=S)[nH]1 [2-thio-UTP, 2-thio-uridine-5′-triphosphate] | 327 ± 42 | 5.89 ± 0.29 | – | 88 ± 26 | – |
| N[C@@H]1[C@H](O)[C@@H](COP(=O)(O)OP(=O)(O)OP(=O)(O)O)O[C@H]1n1ccc(=O)[nH]c1=O [2′-amino-UTP, 2′-amino-2′-deoxyuridine-5′-triphosphate] | 301 ± 34 | 5.58 ± 0.37 | 5.40 ± 0.23 | 84 ± 36 | – |
| [N-]=[N+]=N[C@@H]1[C@H](O)[C@@H](COP(=O)(O)OP(=O)(O)OP(=O)(O)O)O[C@H]1n1ccc(=O)[nH]c1=O [2′-azido-UTP, 2′-azido-2′-deoxyuridine-5′-triphosphate] | 142 ± 29 | 4.67 ± 0.32 | 4.67 ± 0.06 | 55 ± 20 | – |
| Nc1ncnc2c1ncn2[C@@H]1O[C@H](COP(=O)(O)OP(=O)(O)OP(=O)(O)O)[C@@H](O)[C@H]1O [ATP] | 248 ± 48 | 5.83 ± 0.03 | 5.01 ± 0.13 | 64 ± 20 | pEC50 Peak (Ca2+-free) [1]: 5.95 ± 0.10; pEC50 of ATP, peak Ca2+ signal, after Pertussis toxin [2]: 5.30 ± 0.08; pEC50 of ATP, peak Ca2+ signal, without Pertussis toxin ([2]; paired control): 5.63 ± 0.09 |
| CSc1nc(N)c2ncn([C@H]3[C@H](O)[C@H](O)[C@]4(COP(=O)(O)OP(=O)(O)O)C[C@H]34)c2n1 [MRS2365, (N)-methanocarba-2-MeSADP] | 154 ± 5 | 8.68 ± 0.16 | 8.11 ± 0.32 | 18 ± 7 | pEC50 Peak (Ca2+-free) [1]: 8.56 ± 0.06 |
| S=C=Nc1cccc(NC(=S)NCCCCNC(=S)Nc2cccc(N=C=S)c2)c1 [MRS2578, N,N″-1,4-butanediylbis [N′-(3-isothiocyanatophenyl)thio] urea] | – | – | – | – | Solubility in aqueous solution [3]: sparingly soluble; Stability in aqueous solution [3]: unstable |
| COc1ccc2c(c1)CC[C@@H]1[C@@H]2CC[C@]2(C)[C@@H](NCCCCCCN3C(=O)C=CC3=O)CC[C@@H]12 [U73122, 1-[6-[[(17β)-3-methoxyestra-1,3,5 (10)-trien-17-yl]amino]hexyl]-1H-pyrrole-2,5-dione] | – | – | – | – | pIC50 for inhibition of Ca2+ signals evoked by ATP ([4]; ATP 100 µM, inhibitor added 5 min before and during stimulation): 5.78 ± 0.07; Effect on Ca2+ responses to UTP and UDP ([4]; not shown): abolished |
| COc1ccc2c(c1)CC[C@@H]1[C@@H]2CC[C@]2(C)[C@@H](NCCCCCCN3C(=O)CCC3=O)CC[C@@H]12 [U73343, 1-[6-[((17β)-3-methoxyestra-1,3,5 (10)-trien-17-yl)amino]hexyl]-2,5-pyrrolidinedione] | – | – | – | – | Effect on Ca2+ signals evoked by ATP ([4]; ATP 100 µM, inactive analogue of U73122): no effect |
| O=c1ccn([C@@H]2O[C@H](COP(=O)(O)OP(=O)(O)O)[C@@H](O)[C@H]2O)c(=O)[nH]1 [UDP] | 94 ± 20 | 6.45 ± 0.45 | 6.83 ± 0.35 | 25 ± 6 | pEC50 Peak (Ca2+-free) [1]: 6.16 ± 0.43 |
| O=c1ccn([C@@H]2O[C@H](COP(=O)(O)OP(=O)(O)OP(=O)(O)O)[C@@H](O)[C@H]2O)c(=O)[nH]1 [UTP] | 254 ± 47 | 5.23 ± 0.22 | 4.64 ± 0.32 | 67 ± 5 | pEC50 Peak (Ca2+-free) [1]: 5.39 ± 0.15 |
| Nc1ncnc2c1ncn2C1OC(COP(=O)(O)CP(=O)(O)OP(=O)(O)O)C(O)C1O (stereo not drawn) [αβ-meATP, αβ-methylene-adenosine-5′-triphosphate] | – | – | – | – | Ca2+ response in cultured ASMC [5]: no response |
| Pertussis toxin | – | – | – | – | Effect on responses to UDP ([2]; Pertussis toxin 100 ng·mL−1, 24 h): unaffected |
| diphosphoric acid 1-α-D-glucopyranosyl ester 2-[(4′-methylthio)uridin-5″-yl] ester [MRS2690] | – | – | – | – | Ca2+ signals evoked in cultured ASMC [6]: Neither MRS2690 (10 µM) nor UDP-glucose (10 µM) evoked Ca^2+ signals |

Source: article PMC2913105 (British Journal of Pharmacology, 2010)
